Where two headings read alike, the source gives them in different places. Marks after values point to notes of the source that are not given here.
Assays:
[1] = biological target: T1, human A2A adenosine receptor (Homo sapiens, UniProt P29274); test: Radioligand binding, human A2A AR (Table 1); conditions: read-out: A2A Ki; species H (human)
[2] = biological target: T2, human A3 adenosine receptor (Homo sapiens, UniProt P0DMS8); test: [125I]I-AB-MECA binding, human A3 AR, CHO membranes (Table 1)
T2 sequence (P0DMS8 1-318): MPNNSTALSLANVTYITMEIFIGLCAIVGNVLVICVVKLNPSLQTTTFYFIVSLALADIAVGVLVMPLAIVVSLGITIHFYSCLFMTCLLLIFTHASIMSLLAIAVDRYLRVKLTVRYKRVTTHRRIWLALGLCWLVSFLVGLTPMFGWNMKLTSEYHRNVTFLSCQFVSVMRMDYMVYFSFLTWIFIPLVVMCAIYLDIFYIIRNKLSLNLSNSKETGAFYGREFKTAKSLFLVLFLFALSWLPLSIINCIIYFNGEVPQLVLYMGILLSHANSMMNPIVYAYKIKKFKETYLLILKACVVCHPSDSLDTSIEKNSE

hA1AR = biological target: T3, hA1AR (Homo sapiens, UniProt P30542); conditions: values from the literature (footnotes c, d); read-out: Affinity (Ki, nM) hA1; cited from earlier work
T3 construct: expressed in transfected cells; host or cells: CHO
T3 sequence (P30542 1-326): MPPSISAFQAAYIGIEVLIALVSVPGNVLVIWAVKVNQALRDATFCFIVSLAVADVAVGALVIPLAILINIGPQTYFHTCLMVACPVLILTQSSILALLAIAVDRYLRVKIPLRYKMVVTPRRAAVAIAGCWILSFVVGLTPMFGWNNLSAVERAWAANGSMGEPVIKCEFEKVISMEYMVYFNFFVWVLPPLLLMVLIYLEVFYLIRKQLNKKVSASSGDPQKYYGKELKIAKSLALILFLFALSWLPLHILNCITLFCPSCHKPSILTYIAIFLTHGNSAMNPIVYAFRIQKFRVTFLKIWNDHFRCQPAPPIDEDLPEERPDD

hA2AAR = biological target: T4, hA2AAR (Homo sapiens, UniProt P29274); conditions: values from the literature (footnotes c, d); read-out: Affinity (Ki, nM) hA2A; cited from earlier work
T4 construct: expressed in transfected cells
T4 sequence (P29274 whole entry): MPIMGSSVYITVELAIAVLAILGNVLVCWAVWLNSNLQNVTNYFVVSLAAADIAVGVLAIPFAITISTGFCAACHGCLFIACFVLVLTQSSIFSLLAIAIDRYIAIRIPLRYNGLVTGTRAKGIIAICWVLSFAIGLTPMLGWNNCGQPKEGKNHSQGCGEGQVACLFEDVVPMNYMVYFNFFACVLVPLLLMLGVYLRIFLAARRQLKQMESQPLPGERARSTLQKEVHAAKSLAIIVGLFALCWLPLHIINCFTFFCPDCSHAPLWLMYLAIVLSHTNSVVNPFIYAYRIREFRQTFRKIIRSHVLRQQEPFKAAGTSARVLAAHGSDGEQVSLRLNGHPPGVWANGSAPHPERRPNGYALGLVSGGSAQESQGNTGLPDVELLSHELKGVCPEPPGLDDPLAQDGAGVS

hA3AR [3] = biological target: T5, hA3AR (Homo sapiens, UniProt P0DMS8); conditions: values from the literature (footnotes c, d); read-out: Affinity (Ki, nM) hA3; cited from earlier work
T5 construct: expressed in transfected cells; host or cells: CHO
T5 sequence (P0DMS8 1-318): T2 sequence (P0DMS8 1-318)

human A3AR = biological target: T6, human A3AR (Homo sapiens, UniProt P0DMS8); test: Inhibition of forskolin-stimulated cyclic AMP production in AR transfected CHO cells (Table 1); format: cell-based; conditions: at 10 μM, in comparison to maximal effect of full agonist 5′-N-ethylcarboxamidoadenosine at 100%
T6 construct: expressed in transfected cells; host or cells: CHO
T6 sequence (P0DMS8 1-318): T2 sequence (P0DMS8 1-318)

hA3AR [4] = biological target: T5, hA3AR; conditions: at 10 μM vs maximal effect of 51 (= 100%); values from the literature; cited from earlier work
[5] = biological target: T7, human A1 adenosine receptor (Homo sapiens, UniProt P30542); test: Radioligand binding, human A1 AR, CHO membranes (Table 1); conditions: read-out: A1 Ki; species H (human)
T7 sequence (P30542 1-326): T3 sequence (P30542 1-326)

human A1 receptors = biological target: T8, human A1 receptors (Homo sapiens, UniProt P30542); test: Binding at human A1 receptor, CHO membranes (Example 4); conditions: read-out: Affinity (Ki nM) A1
T8 construct: expressed in transfected cells; host or cells: CHO
T8 sequence (P30542 1-326): T3 sequence (P30542 1-326)

human A3 receptor = biological target: T9, human A3 receptor (Homo sapiens, UniProt P0DMS8); test: Binding assay at the human A3 receptor, CHO membranes (Example 4)
T9 sequence (P0DMS8 1-318): T2 sequence (P0DMS8 1-318)

human A2A receptors = biological target: T10, human A2A receptors (Homo sapiens, UniProt P29274); test: Binding at human A2A receptor, HEK-293 membranes (Example 4); conditions: read-out: Affinity (Ki nM) A2A
T10 construct: expressed in transfected cells
T10 sequence (P29274 whole entry): as above

[6] = biological target: T11, mouse A1 adenosine receptor (Mus musculus, UniProt Q60612); test: Competition radioligand binding, mouse A1 AR, HEK293 membranes (Table 1); conditions: read-out: A1 Ki; species M (mouse); [125I]I-AB-MECA; mean ± SEM
T11 sequence (Q60612 1-326): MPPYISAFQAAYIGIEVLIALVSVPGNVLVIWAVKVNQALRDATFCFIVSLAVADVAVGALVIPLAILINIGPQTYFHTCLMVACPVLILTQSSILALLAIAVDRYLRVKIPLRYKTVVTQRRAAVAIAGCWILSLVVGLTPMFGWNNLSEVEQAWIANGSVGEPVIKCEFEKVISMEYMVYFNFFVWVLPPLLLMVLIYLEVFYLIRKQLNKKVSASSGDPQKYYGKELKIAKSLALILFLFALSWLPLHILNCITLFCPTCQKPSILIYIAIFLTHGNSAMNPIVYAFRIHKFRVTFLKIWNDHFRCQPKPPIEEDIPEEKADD

mA1AR = biological target: T12, mA1AR (Mus musculus, UniProt Q60612); conditions: values from Melman et al.; read-out: Affinity (Ki, nM) mA1; cited from earlier work
T12 construct: expressed in transfected cells
T12 sequence (Q60612 1-326): T11 sequence (Q60612 1-326)

rat A3 AR = biological target: T13, rat A3 AR (Rattus norvegicus, UniProt P28647); conditions: species R (rat); data from Tchilibon et al. / Lee et al.; cited from earlier work
T13 sequence (P28647 1-320): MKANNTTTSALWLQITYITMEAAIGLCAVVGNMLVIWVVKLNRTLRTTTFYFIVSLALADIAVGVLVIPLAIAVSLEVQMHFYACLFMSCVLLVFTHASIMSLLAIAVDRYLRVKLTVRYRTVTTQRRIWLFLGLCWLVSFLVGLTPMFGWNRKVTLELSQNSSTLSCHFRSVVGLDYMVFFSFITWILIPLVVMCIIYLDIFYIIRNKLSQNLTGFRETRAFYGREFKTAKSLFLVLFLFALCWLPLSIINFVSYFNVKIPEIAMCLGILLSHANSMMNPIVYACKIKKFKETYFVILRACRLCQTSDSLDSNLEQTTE

[7] = biological target: mouse A2A adenosine receptor (Mus musculus, UniProt Q60613); test: Competition radioligand binding, mouse A2A AR, HEK293 membranes (Table 1); conditions: read-out: A2A Ki; species M (mouse); [3H]CGS21680
Sequence of mouse A2A adenosine receptor (Q60613 whole entry): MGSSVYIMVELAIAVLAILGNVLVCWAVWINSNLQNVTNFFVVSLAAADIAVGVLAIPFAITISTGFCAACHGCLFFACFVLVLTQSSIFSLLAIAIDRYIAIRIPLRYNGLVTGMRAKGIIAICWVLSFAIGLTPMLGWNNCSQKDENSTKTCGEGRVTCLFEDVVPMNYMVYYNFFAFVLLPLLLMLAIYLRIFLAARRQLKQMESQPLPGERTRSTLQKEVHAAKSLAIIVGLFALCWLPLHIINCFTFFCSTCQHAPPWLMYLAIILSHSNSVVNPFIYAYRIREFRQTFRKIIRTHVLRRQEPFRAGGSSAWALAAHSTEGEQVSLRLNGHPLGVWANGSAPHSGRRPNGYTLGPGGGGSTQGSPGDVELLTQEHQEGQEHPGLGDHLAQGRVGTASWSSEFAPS

[8] = biological target: T7, human A1 adenosine receptor; parameters: expressed in transfected cells; host or cells: CHO; conditions: species H (human); data from Tchilibon et al. or Kim et al.; cited from earlier work
mA2AAR = biological target: T14, mA2AAR (Mus musculus, UniProt Q60613); conditions: values from Melman et al.; read-out: Affinity (Ki, nM) mA2A; cited from earlier work
T14 construct: expressed in transfected cells
T14 sequence (Q60613 whole entry): as above

[9] = biological target: T15, mouse A3 adenosine receptor (Mus musculus, UniProt Q61618); test: Competition radioligand binding, mouse A3 AR, HEK293 membranes (Table 1); conditions: for Ki: read-out: A3 Ki, species M (mouse), [125I]I-AB-MECA
T15 sequence (Q61618 1-319): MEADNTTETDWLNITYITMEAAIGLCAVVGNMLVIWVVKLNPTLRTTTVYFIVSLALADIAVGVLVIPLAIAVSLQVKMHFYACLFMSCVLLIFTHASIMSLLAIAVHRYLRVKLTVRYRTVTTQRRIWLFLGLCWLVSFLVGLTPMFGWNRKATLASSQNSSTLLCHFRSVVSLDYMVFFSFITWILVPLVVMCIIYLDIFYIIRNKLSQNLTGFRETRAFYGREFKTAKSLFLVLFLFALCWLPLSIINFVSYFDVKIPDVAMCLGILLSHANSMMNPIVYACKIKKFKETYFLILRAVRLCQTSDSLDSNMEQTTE

[10] = biological target: T1, human A2A adenosine receptor; parameters: expressed in transfected cells; conditions: species H (human); data from Tchilibon et al. or Kim et al.; cited from earlier work
mA3AR = biological target: T16, mA3AR (Mus musculus, UniProt Q61618); conditions: values from Melman et al.; read-out: Affinity (Ki, nM) mA3; cited from earlier work
T16 construct: expressed in transfected cells
T16 sequence (Q61618 1-319): T15 sequence (Q61618 1-319)

[11] = biological target: T2, human A3 adenosine receptor; parameters: expressed in transfected cells; host or cells: CHO; conditions: species H (human); data from Tchilibon et al. or Kim et al.; cited from earlier work

T1 sequence (P29274 whole entry): as the sequence (P29274 whole entry) above

Ki [6] [nM] | Ki [7] [nM] | Ki [9] [nM] | Structure (SMILES) | Ki (hA1AR) [nM] | Ki (hA2AAR) [nM] | binding to the A3AR (in words) (human A3 receptor) | Ki (rat A3 AR) [nM] | Ki [8] [nM] | Ki [10] [nM] | further results
 |  |  | CNC(=O)[C@@]12C[C@@H]1[C@@H](n1cnc3c(NCc4cccc(I)c4)ncnc31)[C@H](O)[C@@H]2O [Compound 31] | 700 ± 270 | 6200 ± 100 |  |  |  |  | Ki [1]: 6200 ± 100 nM; Selectivity A1/A3 ([2]; human): up to 1900; Ki ([2]; read-out: A3 Ki, species H (human)): 2.4 ± 0.5 nM; Ki (hA3AR [3]): 2.4 ± 0.5 nM; % Efficacy at the human A3 AR (human A3AR): 100^j %; % Efficacy hA3 (hA3AR [4]): 100%; Ki [5]: 700 ± 270 nM
 |  |  | OC1C(O)C(n2cnc3c(NC4CC4c4ccccc4)nc(Cl)nc32)C2CC12 (stereo not drawn) [Compound 113b, (1′R,2′R,3′S, 4′R,5′S)-4′-[2-Chloro-6-(trans-2-phenylcyclopropylamino)purine]-2′,3′-O-dihydroxybicyclo-[3.1.0]hexane] |  |  | nanomolar binding affinity |  |  |  | Ki (human A1 receptors): 1790 nM; Ki (human A2A receptors): 2010 nM
15.3 ± 5.8 | 10400 ± 1700 | 1.49 ± 0.46 | CNC(=O)[C@@]12C[C@@H]1[C@@H](n1cnc3c(NCc4cccc(Cl)c4)nc(Cl)nc31)[C@H](O)[C@@H]2O [Compound 13] | 260 ± 60 | 2300 ± 100 |  | 1 | 260 ± 60 | 2300 ± 100 | Ki (mA1AR): 15.3 ± 5.8 nM; Ki (mA2AAR): 10400 nM; Ki (mA3AR): 1.49 ± 0.46 nM
 |  |  | O[C@@H]1[C@H](O)[C@@H]2C[C@@H]2[C@H]1n1cnc2c(Nc3cccc4ccccc34)nc(Cl)nc21 [Compound 110b, (1′R,2′R,3′S, 4′R,5′S)-4′-[2-Chloro-6-(1-naphthylamino)purine]-2′,3′-O-dihydroxybicyclo[3.1.0]hexane] |  |  | nanomolar binding affinity |  |  |  | 
29 ± 3.3 | 44700 ± 5700 | 1.72 ± 0.04 | CNC(=O)[C@@]12C[C@@H]1[C@@H](n1cnc3c(NCc4cc(OC)ccc4OC)nc(Cl)nc31)[C@H](O)[C@@H]2O [Compound 17] |  |  |  | 0.87 | 1600 | 10000 | Ki [11]: 1.4 nM; Selectivity A1/A3 ([9]; mouse): 17

Source: patent US8916570B2 (The United States of America, as represented by the …, priority 2008, dated 2014)
